Data set [1] concerns spleen T cells. Kind of data set: T cell proliferation inhibition (CFSE, FACS), CD3/CD28-activated spleen T cells. The class given is cell-based, C57BL/6 mice. The settings on record: Table 2, 3 days, relative to CD3/CD28+DMSO; for inhibition at 10 µM / inhibition at 30 µM / inhibition at 50 µM: Mus musculus, T-cell, 72 h, read-out: Proliferation inhibition rate (%). The procedure, abridged: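 CFSE-labelled splenic T cells (CD90.2-isolated, 7-week C57BL/6 mice), 2×10^5/well, activated with anti-CD3/CD28 (0.5 μg/mL each) plus compound at 10, 30 or 50 μM in triplicate for 3 days at 37 °C. CFSE dilution by flow cytometry; inhibition % relative to CD3/CD28+DMSO proliferation.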

For data set [2], the system named is T lymphocyte cell line Jurkat E6-1. Kind of data set: Cytotoxicity experiment (CCK-8, relative cell survival). The class given is cell-based. The settings on record: 24 hours, untreated cells = 100%. A digest of the protocol:
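Jurkat cells in RPMI-1640 with 10% FBS were exposed to compounds at several concentrations for 24 h at 37 °C, 5% CO2. CCK-8 added for 2 h, absorbance read at 450 nm; survival expressed relative to untreated cells (100%).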

In data set [3] the test system is spleen T cells. Kind of data set: Cytokine secretion by anti-CD3/CD28-activated T cells (Cytometric Bead Array). The class given is cell-based, C57BL/6 mice. The conditions noted are these: 30 μM; for secretion of IL-2: 24 hours after treatment, FIG. 3; for secretion of IFN-γ / secretion of IL-17A / secretion of TNF-α: 72 hours after treatment. The method, then:
To confirm the effect of compounds of the present invention on the secretion of cytokines by T cells, the following experiment was conducted.
Spleens were harvested and minced from C57BL/6 mice at 7 weeks of age, and single cells were isolated using a strainer (40 μm pore size, SPL). Red blood cells were removed using ACK (Ammonium-Chloride-Potassium) lysis buffer to isolate only leukocytes. These were then reacted with 10 v/v % CD90.2 microbeads (130-121-278, Miltenyi Biotech.) at 4° C. for 20 minutes, resulting in the isolation of spleen T cells from magnetic-based purification. The T cells were cultured in a 96-well plate at an amount of 2×10^5 cells/well. For T cell activation, each well was treated with anti-CD3/CD28 antibodies at a concentration of 1 μg/mL. Subsequently, Vehicle (DMSO) and compounds (Compound 14, Compound 19, Compound 26, Compound 31, Compound 35, Compound 40, Compound 41, Compound 56, Compound 69, Compound 75) at a concentration of 30 μM were treated in each well, and it was cultured at 37° C. in a 5% CO2 incubator. After 24 and 72 hours, the T cell culture medium was taken, and centrifugation was performed at 13,000 rpm for 10 minutes to obtain the supernatant.
To measure the concentration of cytokines present in the T cell culture medium, Mouse Th1/Th2/Th17 Cytokine CBA Kit (Cytometric Bead Array kit) 560485 from BD Science was utilized for flow cytometry analysis. The secretion levels of IL-2 at 24 hours after each drug treatment, and IFN-γ, TNF-α, and IL-17A at 72 hours were measured after each drug treatment.

These results are taken from patent US20250296909A1, “NOVEL BENZENE DERIVATIVE AND IMMUNOSUPPRESSION-RELATED USE THEREOF” (PROVIBIO CO., LTD., priority 2021, published 2025).

For `CCCCCCCCCCCCNS(=O)(=O)c1c(C)cc(C)cc1C` [Compound 41], the “Proliferation inhibition rate (%)” value is 80% in data set [1] (10 μM), 100% in data set [1] (30 μM) and 100% in data set [1] (50 μM). Besides, the “Relative cell survival rate (%)” value in data set [2] (10 μM) is on record as 85%; in data set [2] (20 μM), 83%; in data set [2] (30 μM), 82%; in data set [2] (50 μM) it was 80%. Moreover, the “secretion of IL-2” value in data set [3] was “significant decrease”. For the same molecule, in data set [3], the “secretion of IFN-γ” value is on record as “significant decrease”. Besides, the “secretion of IL-17A” value in data set [3] is listed as “significant decrease”. For the same molecule, in data set [3], the “secretion of TNF-α” value is recorded as “significant decrease”.

In the case of `CCCCCCCCCCCCNC(=O)c1cccnc1Oc1ccc(Cl)cc1` [Compound 26], the results for the “Proliferation inhibition rate (%)” value in data set [1] (10 μM), in data set [1] (30 μM) and in data set [1] (50 μM) were 73%, 100% and 100%, respectively. The “Relative cell survival rate (%)” value in data set [2] (10 μM) is 101%; in data set [2] (20 μM), 97%; in data set [2] (30 μM), 85%; in data set [2] (50 μM) it was 82%. In addition, the “secretion of IL-2” value in data set [3] is on record as “significant decrease”. The “secretion of IFN-γ” value in data set [3] is on record as “significant decrease”. Moreover, the “secretion of IL-17A” value in data set [3] is “significant decrease”. The “secretion of TNF-α” value in data set [3] is “significant decrease”.

With `CCCCCCCCCCCCNC(=O)CNC(=O)c1ccccc1Cl` [Compound 56], the “Proliferation inhibition rate (%)” value in data set [1] (10 μM) was 26%; in data set [1] (30 μM), 50%; in data set [1] (50 μM), 62%. Also, the “Relative cell survival rate (%)” value in data set [2] (10 μM) is 92%; in data set [2] (20 μM), 91%; in data set [2] (30 μM), 89%; in data set [2] (50 μM), 86%. Further, in data set [3], the “secretion of IL-2” value was “significant decrease”. Also, the “secretion of IFN-γ” value in data set [3] is “significant decrease”. Also, the “secretion of IL-17A” value in data set [3] is recorded as “significant decrease”. Also, the “secretion of TNF-α” value in data set [3] is reported as “significant decrease”.

With `CCCCCCCCCCCCNS(=O)(=O)c1ccccc1Br` [Compound 35], the “Proliferation inhibition rate (%)” value in data set [1] (10 μM) was 85%; in data set [1] (30 μM), 92%; in data set [1] (50 μM), 93%. Further, the “Relative cell survival rate (%)” value in data set [2] (10 μM) was 97%; in data set [2] (20 μM), 89%; in data set [2] (30 μM), 87%; in data set [2] (50 μM), 86%. Further, the “secretion of IL-2” value in data set [3] is on record as “significant decrease”. Moreover, the “secretion of IFN-γ” value in data set [3] is given as “significant decrease”. Besides, in data set [3], the “secretion of IL-17A” value was “significant decrease”. Besides, the “secretion of TNF-α” value in data set [3] is “significant decrease”.

With `CCCCCCCCCCCCNS(=O)(=O)c1c(Cl)cccc1Cl` [Compound 40], the “Proliferation inhibition rate (%)” value stood at 86% in data set [1] (10 μM), 97% in data set [1] (30 μM) and 97% in data set [1] (50 μM). Moreover, the “Relative cell survival rate (%)” value in data set [2] (10 μM) came out at 105%; in data set [2] (20 μM), 99%; in data set [2] (30 μM), 96%; in data set [2] (50 μM), 86%. For the same molecule, the “secretion of IL-2” value in data set [3] is recorded as “significant decrease”. Also, the “secretion of IFN-γ” value in data set [3] is given as “significant decrease”. Moreover, the “secretion of IL-17A” value in data set [3] was “significant decrease”. The “secretion of TNF-α” value in data set [3] was “significant decrease”.

For the molecule `CCCCCCCCCCCCNC(=O)c1ccccc1Oc1ccccc1` [Compound 61], in data set [1] (10 μM), the inhibition at 10 µM was 16%. The inhibition at 30 µM in data set [1] (30 μM) amounted to 86%. In addition, in data set [1] (50 μM), the inhibition at 50 µM is 98%. The “Relative cell survival rate (%)” value in data set [2] (10 μM) came out at 96%; in data set [2] (20 μM), 94%; in data set [2] (30 μM), 76%; in data set [2] (50 μM) it was 74%.

Consider `CCCCCCCCCCCCNC(=O)c1ncc(F)cc1F` [Compound 34], for which the inhibition at 10 µM in data set [1] (10 μM) came to 6%. Moreover, the inhibition at 30 µM in data set [1] (30 μM) was found to be 43%. In addition, the inhibition at 50 µM in data set [1] (50 μM) amounted to 87%. Also, the “Relative cell survival rate (%)” value in data set [2] (10 μM) came out at 112%; in data set [2] (20 μM), 109%; in data set [2] (30 μM), 101%; in data set [2] (50 μM), 87%.

Take `CCCCCCCCCCCCNC(=O)c1cccnc1Br` [Compound 76]: the “Proliferation inhibition rate (%)” value in data set [1] (10 μM) stood at 36%; in data set [1] (30 μM), 49%; in data set [1] (50 μM), 65%. Further, the “Relative cell survival rate (%)” value in data set [2] (10 μM) is 115%; in data set [2] (20 μM), 95%; in data set [2] (30 μM), 92%; in data set [2] (50 μM) it was 70%.

On to `CCCCCCCCCCCCNC(=O)c1ccncc1Cl` [Compound 12], for which the inhibition at 10 µM in data set [1] (10 μM) worked out at 5%. Moreover, the inhibition at 30 µM in data set [1] (30 μM) stood at 38%. Moreover, the inhibition at 50 µM in data set [1] (50 μM) was 99%. For the same molecule, the “Relative cell survival rate (%)” value is reported as 100% in data set [2] (10 μM), 92% in data set [2] (20 μM), 83% in data set [2] (30 μM) and 79% in data set [2] (50 μM).

Consider `CCCCCCCCCCCCNC(=O)c1ccccc1C(F)(F)F` [Compound 38], for which the “Proliferation inhibition rate (%)” value in data set [1] (10 μM) is listed as 40%; in data set [1] (30 μM), 73%; in data set [1] (50 μM), 85%. Moreover, the “Relative cell survival rate (%)” value in data set [2] (10 μM) was 90%; in data set [2] (20 μM), 91%; in data set [2] (30 μM) it was 89%; in data set [2] (50 μM) it was 89%.

With `CCCCCCCCCCCCNC(=O)c1cccnc1C(F)(F)F` [Compound 77], the “Proliferation inhibition rate (%)” value in data set [1] (10 μM) was determined as 24%; in data set [1] (30 μM) it was 47%; in data set [1] (50 μM), 66%. The “Relative cell survival rate (%)” value in data set [2] (10 μM) came out at 116%; in data set [2] (20 μM), 124%; in data set [2] (30 μM), 123%; in data set [2] (50 μM), 123%.

Consider `CCCCCCCCCCCCNS(=O)(=O)c1ccccc1[N+](=O)[O-]` [Compound 58], for which the inhibition at 10 µM in data set [1] (10 μM) worked out at 39%. The inhibition at 30 µM in data set [1] (30 μM) was determined as 51%. Moreover, the inhibition at 50 µM in data set [1] (50 μM) was found to be 68%. The “Relative cell survival rate (%)” value came to 100% in data set [2] (10 μM), 98% in data set [2] (20 μM), 97% in data set [2] (30 μM) and 94% in data set [2] (50 μM).

On to `C=Cc1ccccc1C(=O)NCCCCCCCCCCCC` [Compound 57], for which the inhibition at 10 µM in data set [1] (10 μM) came to 93%. Moreover, the inhibition at 30 µM in data set [1] (30 μM) was found to be 100%. In data set [1] (50 μM), the inhibition at 50 µM was determined as 100%. The “Relative cell survival rate (%)” value in data set [2] (10 μM) is on record as 108%; in data set [2] (20 μM), 108%; in data set [2] (30 μM) it was 104%; in data set [2] (50 μM) it was 101%.

In the case of `CCCCCCCCCCCCNC(=O)c1cnccc1N` [Compound 71], in data set [1] (10 μM), the inhibition at 10 µM is 100%. In addition, the inhibition at 30 µM in data set [1] (30 μM) stood at 100%. Besides, the inhibition at 50 µM in data set [1] (50 μM) was determined as 100%. For the same molecule, the “Relative cell survival rate (%)” value in data set [2] (10 μM) stood at 101%; in data set [2] (20 μM) it was 94%; in data set [2] (30 μM), 92%; in data set [2] (50 μM), 88%.

Turning to `CCCCCCCCCCCCNC(=O)c1ccccc1-c1ccc(C)cc1` [Compound 27], in data set [1] (10 μM), the inhibition at 10 µM came to 62%. Moreover, the inhibition at 30 µM in data set [1] (30 μM) is 96%. The inhibition at 50 µM in data set [1] (50 μM) came out at 100%. The “Relative cell survival rate (%)” value in data set [2] (10 μM) was determined as 109%; in data set [2] (20 μM), 77%; in data set [2] (30 μM), 71%; in data set [2] (50 μM), 63%.
